From patent US11504383B2, “Crystalline forms of a Ryanodine receptor modulator and uses thereof” (ARMGO Pharma, Inc., priority 2021, dated 2022)

Tests used:
Assay type in all cases: physicochemical
[1] = Stability of Form 2 in an airtight glass bottle for up to 24 months under various storage conditions; parameters: key to Appearance: A1: White or almost white powder; key to Identification: I1: Spectrum of test sample identical to spectrum of reference sample; I3: Spectrum of test sample identical to spectrum of reference sample stored at −18° C
Procedure: Stability of 4-[(7-methoxy-2,3-dihydro-1,4-benzothiazepin-4(5H)yl)methyl]benzoic acid hemifumarate Form 2 was evaluated for up to 24 months under various conditions.

[2] = Storage stability of the polymorphs followed by XRD; conditions: after 24 months (XRD at 3, 6, 12 and 24 months)
Procedure: The top panel depicts the polymorph at initiation and the bottom three panels depict the polymorph after 24 months. FIG. 5 Panel A: initial control; FIG. 5 Panel B: sample stored for 2 years in open bottle in stability chambers at 25° C./60% relative humidity (RH); FIG. 5 Panel C: sample stored for 2 years in closed bottle in stability chambers at 40° C./75% RH; FIG. 5 Panel D: sample stored for 2 years in open bottle in stability chambers at 40° C./75% RH.
The top panel depicts the polymorph at initiation and the bottom panels depict the polymorph after 3, 6, 12 and 24 months.

[3] = Competitive slurry experiments mixing Form 1 and Form 2 in various solvents; conditions: competitive slurry experiments at 15° C. and 40° C.
Procedure: Competitive slurry experiments were performed at 15° C. (Table 5) or 40° C. (Table 6) by mixing Form 1 and Form 2 in various solvents in acetonitrile/water, acetone/water and methanol/water mixtures. […] (Table 5) or 40° C. (Table 6).

COc1ccc2c(c1)CN(Cc1ccc(C(=O)O)cc1)CCS2.O=C(O)/C=C/C(=O)O [Form 2, 4-[(7-methoxy-2,3-dihydro-1,4-benzothiazepin-4(5H)yl)methyl]benzoic acid, hemifumarate]
100.5%: Assay by potentiometry ([1]; 40° C./75% RH, 6 M)
A1: Appearance ([1]; 25° C./60% RH, 1 Y) | Appearance ([1]; 25° C./60% RH, 2 Y) | Appearance ([1]; 25° C./60% RH, 3 M) | Appearance ([1]; 25° C./60% RH, 6 M) | Appearance ([1]; 25° C./60% RH, 6 W) | Appearance ([1]; 25° C./60% RH, 9 M) | Appearance ([1]; 25° C./60% RH, 18 M) | Appearance ([1]; 25° C./60% RH, T0) | Appearance ([1]; 30° C./65% RH, 1 Y) | Appearance ([1]; 30° C./65% RH, 3 M) | Appearance ([1]; 30° C./65% RH, 6 M) | Appearance ([1]; 30° C./65% RH, 6 W) | Appearance ([1]; 30° C./65% RH, 9 M) | Appearance ([1]; 30° C./65% RH, T0) | Appearance ([1]; 40° C./75% RH, 3 M) | Appearance ([1]; 40° C./75% RH, 6 M) | Appearance ([1]; 40° C./75% RH, 6 W) | Appearance ([1]; 40° C./75% RH, T0) | Appearance ([1]; −18° C., 1 Y) | Appearance ([1]; −18° C., 2 Y) | Appearance ([1]; −18° C., 3 M) | Appearance ([1]; −18° C., 6 M) | Appearance ([1]; −18° C., 6 W) | Appearance ([1]; −18° C., 9 M) | Appearance ([1]; −18° C., 18 M) | Appearance ([1]; −18° C., T0)
99.9%: Assay by potentiometry ([1]; 25° C./60% RH, T0) | Assay by potentiometry ([1]; 30° C./65% RH, T0) | Assay by potentiometry ([1]; 40° C./75% RH, T0) | Assay by potentiometry ([1]; −18° C., 6 W) | Assay by potentiometry ([1]; −18° C., T0)
I1: Identification ([1]; 25° C./60% RH, T0) | Identification ([1]; 30° C./65% RH, T0) | Identification ([1]; 40° C./75% RH, T0) | Identification ([1]; −18° C., T0)
99.1%: Assay by potentiometry ([1]; 25° C./60% RH, 9 M)
0.1%: Water content ([1]; 25° C./60% RH, 3 M) | Water content ([1]; 25° C./60% RH, 6 M) | Water content ([1]; 25° C./60% RH, 18 M) | Water content ([1]; 25° C./60% RH, T0) | Water content ([1]; 30° C./65% RH, 3 M) | Water content ([1]; 30° C./65% RH, 6 M) | Water content ([1]; 30° C./65% RH, T0) | Water content ([1]; 40° C./75% RH, 3 M) | Water content ([1]; 40° C./75% RH, 6 M) | Water content ([1]; 40° C./75% RH, 6 W) | Water content ([1]; 40° C./75% RH, T0) | Water content ([1]; −18° C., 3 M) | Water content ([1]; −18° C., 6 M) | Water content ([1]; −18° C., 6 W) | Water content ([1]; −18° C., 18 M) | Water content ([1]; −18° C., T0)
102.5%: Assay of Drug substance (LC) ([1]; 25° C./60% RH, 6 W)
more stable than Form 1: Relative stability of the forms [3]
100.9%: Assay of Drug substance (LC) ([1]; 25° C./60% RH, 18 M)
102.2%: Assay of Drug substance (LC) ([1]; 40° C./75% RH, 6 W)
99.2%: Assay of Drug substance (LC) ([1]; 40° C./75% RH, 6 M)
99.8%: Assay of Drug substance (LC) ([1]; 25° C./60% RH, 1 Y) | Assay by potentiometry ([1]; 25° C./60% RH, 18 M) | Assay by potentiometry ([1]; 30° C./65% RH, 3 M) | Assay by potentiometry ([1]; 30° C./65% RH, 6 W) | Assay by potentiometry ([1]; 40° C./75% RH, 3 M) | Assay by potentiometry ([1]; 40° C./75% RH, 6 W)
100.4%: Assay by potentiometry ([1]; 30° C./65% RH, 6 M)
100.2%: Assay of Drug substance (LC) ([1]; 30° C./65% RH, 6 M)
stable: Stability of the polymorph on storage (XRD, FIG. 10) [2]
100.0%: Assay by potentiometry ([1]; 25° C./60% RH, 3 M)
99.7%: Assay of Drug substance (LC) ([1]; 25° C./60% RH, 6 M) | Assay by potentiometry ([1]; 25° C./60% RH, 6 W) | Assay of Drug substance (LC) ([1]; 25° C./60% RH, T0) | Assay of Drug substance (LC) ([1]; 30° C./65% RH, 3 M) | Assay of Drug substance (LC) ([1]; 30° C./65% RH, 9 M) | Assay of Drug substance (LC) ([1]; 30° C./65% RH, T0) | Assay of Drug substance (LC) ([1]; 40° C./75% RH, T0) | Assay by potentiometry ([1]; −18° C., 9 M) | Assay of Drug substance (LC) ([1]; −18° C., T0)
I3: Identification ([1]; 25° C./60% RH, 1 Y) | Identification ([1]; 25° C./60% RH, 2 Y) | Identification ([1]; 25° C./60% RH, 3 M) | Identification ([1]; 25° C./60% RH, 6 M) | Identification ([1]; 25° C./60% RH, 6 W) | Identification ([1]; 25° C./60% RH, 9 M) | Identification ([1]; 25° C./60% RH, 18 M) | Identification ([1]; 30° C./65% RH, 1 Y) | Identification ([1]; 30° C./65% RH, 3 M) | Identification ([1]; 30° C./65% RH, 6 M) | Identification ([1]; 30° C./65% RH, 6 W) | Identification ([1]; 30° C./65% RH, 9 M) | Identification ([1]; 40° C./75% RH, 3 M) | Identification ([1]; 40° C./75% RH, 6 M) | Identification ([1]; 40° C./75% RH, 6 W) | Identification ([1]; −18° C., 6 W)
<0.1%: Water content ([1]; 25° C./60% RH, 1 Y) | Water content ([1]; 25° C./60% RH, 2 Y) | Water content ([1]; 25° C./60% RH, 6 W) | Water content ([1]; 25° C./60% RH, 9 M) | Water content ([1]; 30° C./65% RH, 1 Y) | Water content ([1]; 30° C./65% RH, 6 W) | Water content ([1]; 30° C./65% RH, 9 M) | Water content ([1]; −18° C., 1 Y) | Water content ([1]; −18° C., 2 Y) | Water content ([1]; −18° C., 9 M)
99.6%: Assay by potentiometry ([1]; 25° C./60% RH, 2 Y) | Assay of Drug substance (LC) ([1]; 25° C./60% RH, 3 M) | Assay by potentiometry ([1]; 30° C./65% RH, 9 M)
99.5%: Assay of Drug substance (LC) ([1]; 25° C./60% RH, 2 Y) | Assay of Drug substance (LC) ([1]; 30° C./65% RH, 1 Y) | Assay of Drug substance (LC) ([1]; 40° C./75% RH, 3 M)
102.4%: Assay of Drug substance (LC) ([1]; 30° C./65% RH, 6 W)
≤0.05%: Related substances content (LC) Sum of impurities ([1]; 25° C./60% RH, 1 Y) | Related substances content (LC) Sum of impurities ([1]; 25° C./60% RH, 2 Y) | Related substances content (LC) Sum of impurities ([1]; 25° C./60% RH, 3 M) | Related substances content (LC) Sum of impurities ([1]; 25° C./60% RH, 6 M) | Related substances content (LC) Sum of impurities ([1]; 25° C./60% RH, 6 W) | Related substances content (LC) Sum of impurities ([1]; 25° C./60% RH, 9 M) | Related substances content (LC) Sum of impurities ([1]; 25° C./60% RH, 18 M) | Related substances content (LC) Sum of impurities ([1]; 25° C./60% RH, T0) | Related substances content (LC) Sum of impurities ([1]; 30° C./65% RH, 1 Y) | Related substances content (LC) Sum of impurities ([1]; 30° C./65% RH, 3 M) | Related substances content (LC) Sum of impurities ([1]; 30° C./65% RH, 6 M) | Related substances content (LC) Sum of impurities ([1]; 30° C./65% RH, 6 W) | Related substances content (LC) Sum of impurities ([1]; 30° C./65% RH, 9 M) | Related substances content (LC) Sum of impurities ([1]; 30° C./65% RH, T0) | Related substances content (LC) Sum of impurities ([1]; 40° C./75% RH, 3 M) | Related substances content (LC) Sum of impurities ([1]; 40° C./75% RH, 6 M) | Related substances content (LC) Sum of impurities ([1]; 40° C./75% RH, 6 W) | Related substances content (LC) Sum of impurities ([1]; 40° C./75% RH, T0) | Related substances content (LC) Sum of impurities ([1]; −18° C., T0)
100.6%: Assay of Drug substance (LC) ([1]; 25° C./60% RH, 9 M)
102.1%: Assay by potentiometry ([1]; 25° C./60% RH, 6 M)
